Data: PMC5910229 (Neuron, 2018)
Blank lines part the entries; values can stand above or below the molecule they belong to.

Columns and labels:
[1] = molecular target: T1, RIM1 C2B (RIM1α C2B domain) (Rattus norvegicus, UniProt Q9JIR4); test: 1H-15N HSQC NMR titration; format: binding
T1 sequence (Q9JIR4 1447-1615): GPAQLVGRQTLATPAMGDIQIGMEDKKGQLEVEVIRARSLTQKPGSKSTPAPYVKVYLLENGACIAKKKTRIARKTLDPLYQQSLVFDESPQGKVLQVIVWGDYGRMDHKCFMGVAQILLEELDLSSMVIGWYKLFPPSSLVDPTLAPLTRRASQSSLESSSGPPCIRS

AUC = molecular target: the molecule itself; test: AUC

Kd [1]: 32 to 79 µM
Molecule: CCCC(=O)OC[C@H](COP(=O)(O)O[C@@H]1[C@H](O)[C@H](O)[C@@H](OP(=O)(O)O)[C@H](OP(=O)(O)O)[C@H]1O)OC(=O)CCC [diC4-PIP2]

B1: RIM1α C2B domain (GST tag cleaved) (domain or fragment, rat)
chain: T1 sequence (Q9JIR4 1447-1615)
Kd (AUC): ~3000 µM
